Reference: paper PMC11702115 (BMC Biology, 2025)

What was measured:
OfurIR75/OfurIR8a = OfurIR75/OfurIR8a (Ostrinia furnacalis, UniProt A0A0F7QIG0); assay: two-electrode voltage clamp, Xenopus oocytes; format: cell-based; conditions: agonist, IR8a co-expressed, 10 uM screen, -80 mV, pH 7.6
HarmOR52 (with HarmOrco) = biological target: T1, HarmOR52 (with HarmOrco) (Helicoverpa armigera, UniProt A0A7T3KAH2); assay: two-electrode voltage clamp, Xenopus oocytes; format: cell-based; conditions: agonist; Orco co-expressed; 100 uM screen, dose series; -80 mV, pH 7.6
T1 sequence (A0A7T3KAH2 1-419): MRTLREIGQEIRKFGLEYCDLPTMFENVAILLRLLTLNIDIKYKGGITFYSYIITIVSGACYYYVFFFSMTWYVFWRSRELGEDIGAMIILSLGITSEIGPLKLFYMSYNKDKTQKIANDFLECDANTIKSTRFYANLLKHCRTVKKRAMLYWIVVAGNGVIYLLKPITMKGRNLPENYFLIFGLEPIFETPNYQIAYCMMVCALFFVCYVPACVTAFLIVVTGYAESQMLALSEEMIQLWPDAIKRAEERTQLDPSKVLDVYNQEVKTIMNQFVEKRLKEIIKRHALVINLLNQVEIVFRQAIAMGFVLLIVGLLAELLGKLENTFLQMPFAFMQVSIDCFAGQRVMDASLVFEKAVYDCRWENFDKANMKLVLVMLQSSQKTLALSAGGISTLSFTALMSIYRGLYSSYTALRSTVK

Sequence of OfurIR75/OfurIR8a (A0A0F7QIG0 19-626): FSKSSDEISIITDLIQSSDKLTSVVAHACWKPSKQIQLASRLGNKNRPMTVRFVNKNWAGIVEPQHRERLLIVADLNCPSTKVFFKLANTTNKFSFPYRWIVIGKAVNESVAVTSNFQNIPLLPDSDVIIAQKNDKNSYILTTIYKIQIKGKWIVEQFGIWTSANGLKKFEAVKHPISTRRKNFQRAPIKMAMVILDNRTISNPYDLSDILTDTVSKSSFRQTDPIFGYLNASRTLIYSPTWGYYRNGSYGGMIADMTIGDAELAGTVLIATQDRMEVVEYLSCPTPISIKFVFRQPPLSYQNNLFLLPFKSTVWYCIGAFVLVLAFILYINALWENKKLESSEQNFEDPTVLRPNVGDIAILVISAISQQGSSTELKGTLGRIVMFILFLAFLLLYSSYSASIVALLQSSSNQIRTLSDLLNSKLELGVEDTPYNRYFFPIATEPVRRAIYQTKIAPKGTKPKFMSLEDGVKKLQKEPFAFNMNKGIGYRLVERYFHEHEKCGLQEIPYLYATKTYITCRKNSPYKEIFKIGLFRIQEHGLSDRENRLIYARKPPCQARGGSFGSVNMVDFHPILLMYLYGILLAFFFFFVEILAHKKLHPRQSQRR
Sequence of OfurIR75/OfurIR8a (A0A0F7QED2 20-902 partner): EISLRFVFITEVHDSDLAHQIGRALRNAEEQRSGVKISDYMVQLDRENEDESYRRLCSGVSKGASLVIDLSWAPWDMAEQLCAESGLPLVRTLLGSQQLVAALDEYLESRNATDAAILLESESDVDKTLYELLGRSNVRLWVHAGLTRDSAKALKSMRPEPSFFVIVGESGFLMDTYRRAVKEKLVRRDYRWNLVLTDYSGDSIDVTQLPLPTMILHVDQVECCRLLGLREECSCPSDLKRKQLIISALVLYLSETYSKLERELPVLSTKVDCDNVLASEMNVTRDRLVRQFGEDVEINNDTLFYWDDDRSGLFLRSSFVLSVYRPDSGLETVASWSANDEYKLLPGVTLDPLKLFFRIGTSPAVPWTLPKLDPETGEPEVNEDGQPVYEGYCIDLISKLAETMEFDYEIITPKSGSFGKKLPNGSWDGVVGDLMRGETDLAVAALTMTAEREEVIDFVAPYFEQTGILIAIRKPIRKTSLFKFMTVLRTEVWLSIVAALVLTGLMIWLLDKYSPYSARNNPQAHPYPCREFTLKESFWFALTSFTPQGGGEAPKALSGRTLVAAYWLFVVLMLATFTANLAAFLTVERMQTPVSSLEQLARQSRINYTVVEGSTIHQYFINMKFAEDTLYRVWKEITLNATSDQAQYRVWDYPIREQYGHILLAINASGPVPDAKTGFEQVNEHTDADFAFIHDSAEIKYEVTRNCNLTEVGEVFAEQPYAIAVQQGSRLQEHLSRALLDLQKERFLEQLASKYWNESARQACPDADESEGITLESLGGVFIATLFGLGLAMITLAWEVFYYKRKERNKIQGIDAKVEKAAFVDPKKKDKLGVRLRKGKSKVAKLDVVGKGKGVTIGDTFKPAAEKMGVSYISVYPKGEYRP

Structure (SMILES) | two-electrode voltage clamp, Xenopus oocytes (OfurIR75/OfurIR8a) | two-electrode voltage clamp, Xenopus oocytes (OfurIR75/OfurIR8a; dose series) | two-electrode voltage clamp, Xenopus oocytes (HarmOR52 (with HarmOrco))
CCCCCCC(=O)O [heptanoic acid] | Weaker responses were elicited by heptanoic acid and octanoic acid |  | 
CCCCCC(=O)O [hexanoic acid] |  | OfurIR75/OfurIR8a responded strongly with similar magnitudes to pentanoic acid and hexanoic acid | 
CC(C)CCO [isoamyl alcohol] |  |  | receptors from this clade exhibited similar response profiles, with isoamyl alcohol as the primary ligand
CCCCCCCC(=O)O [octanoic acid] | Weaker responses were elicited by heptanoic acid and octanoic acid |  | 
CCCCC(=O)O [pentanoic acid] |  | OfurIR75/OfurIR8a responded strongly with similar magnitudes to pentanoic acid and hexanoic acid | 
CCCCCO [pentanol] |  |  | dose-dependent, with a higher sensitivity to isoamyl alcohol compared to pentanol
